Where “and” joins values, the source holds several entries; their conditions need not be identical. Identical values can stand only once.

Results on two compounds are retold here after PMC6009898 (Journal of Enzyme Inhibition and Medicinal Chemistry, 2017).

The target of one series is T1, human AChE (Homo sapiens, UniProt P22303).
T1 construct: Acetylcholinesterase (E.C. 3.1.1.7) from electric eel and human erythrocytes; purchased Sigma-Aldrich (St. Louis, MO); host or cells: human erythrocytes
Kind of series: biochemical. The conditions noted are these: means ± SD of three experiments; read-out: IC50 hAChE.

Another series has as its target EeAChE (Electrophorus electricus, UniProt O42275). Briefly: Kinetic analysis of AChE inhibition (Lineweaver–Burk plots). The conditions noted are these: 5l at 30.0, 15.0 and 7.5 nM.
The target of the next series is T2, AChE (from electric eel) (Electrophorus electricus, UniProt O42275).
T2 construct: Acetylcholinesterase (E.C. 3.1.1.7) from electric eel and human erythrocytes; purchased Sigma-Aldrich (St. Louis, MO); host or cells: electric eel (natural source)
Briefly: biochemical. The conditions noted are these: means ± SD of three experiments; read-out: IC50 eeAChE.

A further series is described as follows: in vitro. Also on record: Papp at 16 h: dose or concentration left out as unconfirmed. The conditions noted are these: for Papp at 16 h: PAMPA. On the procedure:
Commercial drugs were purchased from Sigma (St. Louis, MO) and Alfa Aesar (Haverhill, MA). The porcine brain lipid (PBL) was obtained from Avanti Polar Lipids (Alabaster, AL). The donor microplate (PVDF membrane, pore size […]) and the acceptor microplate were both from Millipore (Darmstadt, Germany). The 96-well UV plate (COSTAR^@) was from Corning Incorporated (Harrodsburg, KY). The acceptor 96-well microplate was filled with 300 μL of PBS/EtOH (7:3), and the filter membrane was impregnated with 4 μL of PBL in dodecane (20 mg/mL). […] The […] was carefully placed on the donor plate to form a sandwich, which was left undisturbed for 16 h at 25 °C. After incubation, the donor plate was carefully removed and the concentration of compound in the acceptor wells was determined using an UV plate reader (Flexstation^@ 3). Every sample was analyzed at five wavelengths, in four wells, in at least three independent runs, and the results are given as the mean ± SD. In each experiment, nine quality control standards of known BBB permeability were included to validate the analysis set.
Background: In PAMPA a lipid-coated filter parts donor from acceptor wells.

Series [1] has as its target T3, BuChE (from equine serum) (Equus caballus, UniProt P81908).
T3 construct: butyrylcholinesterase (BuChE, E.C. 3.1.1.8) from equine serum and human serum; purchased Sigma-Aldrich (St. Louis, MO); host or cells: equine serum
Briefly: biochemical. In kind it is biochemical. The conditions noted are these: IC50 eqBuChE, means ± SD of three experiments.

The next series has as its target brain AChE (Mus musculus, UniProt P21836). The following applies: mice, 10 μmol/kg i.p., sacrificed 10 min after administration.
Series [2] concerns PC12 cells. Briefly: Cytotoxicity in PC12 cells (MTT assay). Type of series: cell-based. The conditions noted are these: 3–50 μM, 24 h. On the procedure: The toxicity effect of the tested compounds on the rat pheochromocytoma (PC12) cells was examined according to previously reported methods. PC 12 cells was obtained from the Cell Bank of the Chinese Academy of Sciences (Shanghai, China) and routinely grown at 37 °C in a humidified incubator with 5% CO2 in Dulbecco’s modified Eagle’s medium (DMEM) supplemented with 10% bovine calf serum, 100 units per mL penicillin, and 100 units per mL of streptomycin. Cells were sub-cultured in 96-well plates at a seeding density of 5000 cells per well and allowed to adhere and grow. When cells reached the required confluence, they were placed into serum-free medium and treated with compound 5l. Twenty-four hours later the survival of cells was determined by MTT assay. Briefly, after incubation with 20 μL of MTT at 37 °C for 4 h, living cells containing MTT formazan crystals were solubilized in 200 μL DMSO. The absorbance of each well was measured using a microculture plate reader with a test wavelength of 570 nm and a reference wavelength of 630 nm. Results are expressed as the mean ± SD of three independent experiments.
A general note: Formazan colour is commonly taken as a measure of viable cells.

The target of series [3] is T4, Aβ (1–42) (Homo sapiens, UniProt P05067). Kind of series: Inhibition of Cu^2+-induced Aβ (1–42) aggregation (ThT assay). The conditions noted are these: read-out: Inhibition of Cu^2+-induced Aβ aggregation. In kind it is biochemical. On the procedure: The mixture of the peptide (10 μL, 25 μM, final concentration) with or without copper (10 μL, 25 μM, final concentration) and the test compound (10 μL, 50 μM, final concentration) were incubated at 37 °C for 24 h. The 20 μL of the sample was diluted to a final volume of 200 μL with […] glycine–NaOH buffer (pH 8.0) containing ThT (5 μM). The detection method was the same as that of self-induced Aβ aggregation experiment.

The subject of series [4] is PC12 cells. Briefly: Neuroprotection against Aβ (1–42)-induced toxicity in PC12 cells (MTT assay). In kind it is cell-based. The following applies: Rattus norvegicus, PC-12, Aβ (1–42) 25 μM, 24 h, Aβ alone 44.2%, read-out: Cell viability (% of control) with Aβ (1–42). The protocol: PC 12 cells were grown in RPMI-1640 medium containing 10% (v/v) foetal bovine serum, 100 U penicillin/mL and […] streptomycin/mL under 5% CO2 at 37 °C. The culture media were changed every other day. After pretreatment with different concentrations of test compound (0, 6, 12.5, 25, 50 μM) for 2 h, PC 12 cells were incubated with 25 μM of Aβ (1–42) for 24 h. The cell viability was evaluated using MTT assay. Briefly, the cells were treated with 10 μL MTT (5 mg/mL in PBS) for 4 h at 37 °C. Then, 200 μL of DMSO was added to dissolve the dark blue formazan crystals formed in intact cells, and the absorbance at 570 nm was detected by a microplate reader. PC12 cells were cultured without test compound or Aβ (1–42) as control group and the results were expressed by percentage of control.

Series [5] has as its target T4, Aβ (1–42). Kind of series: Inhibition of Aβ (1–42) self-induced aggregation (Thioflavin T assay). The conditions noted are these: read-out: Aβ (1–42) aggregation inhibition (%).
For series [6] the following is noted: PAMPA-BBB literature value; cited from earlier work.

T4 sequence (P05067 672-713): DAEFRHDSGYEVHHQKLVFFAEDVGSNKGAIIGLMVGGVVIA
T3 sequence (P81908 whole entry): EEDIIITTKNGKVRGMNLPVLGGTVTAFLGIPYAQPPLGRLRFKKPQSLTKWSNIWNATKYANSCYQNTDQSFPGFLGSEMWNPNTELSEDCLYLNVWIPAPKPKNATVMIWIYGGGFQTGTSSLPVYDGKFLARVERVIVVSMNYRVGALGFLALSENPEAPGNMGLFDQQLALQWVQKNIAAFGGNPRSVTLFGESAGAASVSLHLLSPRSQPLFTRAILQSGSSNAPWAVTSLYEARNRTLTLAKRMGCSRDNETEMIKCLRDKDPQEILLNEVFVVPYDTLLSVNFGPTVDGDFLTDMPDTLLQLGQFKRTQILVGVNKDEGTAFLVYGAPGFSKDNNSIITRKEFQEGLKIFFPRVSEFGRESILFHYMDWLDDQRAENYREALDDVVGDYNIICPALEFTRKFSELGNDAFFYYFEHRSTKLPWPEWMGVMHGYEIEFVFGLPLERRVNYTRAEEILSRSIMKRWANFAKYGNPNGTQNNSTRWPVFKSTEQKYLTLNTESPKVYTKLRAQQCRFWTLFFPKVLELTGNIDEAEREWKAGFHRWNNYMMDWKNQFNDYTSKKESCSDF
T1 sequence (P22303 other isoform, or with tags, fused parts or gaps): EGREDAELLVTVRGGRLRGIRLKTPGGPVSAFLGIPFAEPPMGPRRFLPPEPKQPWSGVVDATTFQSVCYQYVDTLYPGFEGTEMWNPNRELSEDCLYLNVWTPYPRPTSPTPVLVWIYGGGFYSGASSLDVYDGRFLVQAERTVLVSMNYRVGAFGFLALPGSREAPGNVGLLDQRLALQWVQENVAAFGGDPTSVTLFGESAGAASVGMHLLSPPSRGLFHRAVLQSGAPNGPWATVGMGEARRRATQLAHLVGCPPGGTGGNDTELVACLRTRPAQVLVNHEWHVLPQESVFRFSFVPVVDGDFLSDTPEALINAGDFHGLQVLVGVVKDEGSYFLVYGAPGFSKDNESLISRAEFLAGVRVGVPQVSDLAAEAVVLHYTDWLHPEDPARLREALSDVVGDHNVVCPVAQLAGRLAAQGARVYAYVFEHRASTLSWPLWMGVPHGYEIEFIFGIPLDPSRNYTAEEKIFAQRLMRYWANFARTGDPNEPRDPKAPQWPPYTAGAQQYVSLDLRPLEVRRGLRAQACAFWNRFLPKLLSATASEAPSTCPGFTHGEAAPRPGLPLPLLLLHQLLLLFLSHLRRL
Sequence of EeAChE (O42275 24-633): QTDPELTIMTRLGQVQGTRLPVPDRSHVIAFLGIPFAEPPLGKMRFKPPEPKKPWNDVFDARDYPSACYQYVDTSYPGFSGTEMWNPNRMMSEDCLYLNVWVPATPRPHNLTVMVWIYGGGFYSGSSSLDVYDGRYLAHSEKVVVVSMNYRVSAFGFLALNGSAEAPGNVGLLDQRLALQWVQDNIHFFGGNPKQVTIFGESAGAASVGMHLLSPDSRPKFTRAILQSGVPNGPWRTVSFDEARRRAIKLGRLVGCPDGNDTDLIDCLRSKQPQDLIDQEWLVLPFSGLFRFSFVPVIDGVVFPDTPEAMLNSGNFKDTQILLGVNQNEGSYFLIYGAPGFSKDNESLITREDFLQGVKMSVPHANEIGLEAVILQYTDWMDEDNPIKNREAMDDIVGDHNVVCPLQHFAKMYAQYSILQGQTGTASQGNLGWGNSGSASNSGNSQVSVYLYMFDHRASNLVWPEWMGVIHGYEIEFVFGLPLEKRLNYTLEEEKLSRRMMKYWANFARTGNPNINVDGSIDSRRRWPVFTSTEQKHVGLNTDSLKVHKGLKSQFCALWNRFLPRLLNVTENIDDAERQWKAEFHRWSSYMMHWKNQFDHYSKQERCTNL
T2 sequence (O42275 24-633): as above
Sequence of brain AChE (P21836 32-614): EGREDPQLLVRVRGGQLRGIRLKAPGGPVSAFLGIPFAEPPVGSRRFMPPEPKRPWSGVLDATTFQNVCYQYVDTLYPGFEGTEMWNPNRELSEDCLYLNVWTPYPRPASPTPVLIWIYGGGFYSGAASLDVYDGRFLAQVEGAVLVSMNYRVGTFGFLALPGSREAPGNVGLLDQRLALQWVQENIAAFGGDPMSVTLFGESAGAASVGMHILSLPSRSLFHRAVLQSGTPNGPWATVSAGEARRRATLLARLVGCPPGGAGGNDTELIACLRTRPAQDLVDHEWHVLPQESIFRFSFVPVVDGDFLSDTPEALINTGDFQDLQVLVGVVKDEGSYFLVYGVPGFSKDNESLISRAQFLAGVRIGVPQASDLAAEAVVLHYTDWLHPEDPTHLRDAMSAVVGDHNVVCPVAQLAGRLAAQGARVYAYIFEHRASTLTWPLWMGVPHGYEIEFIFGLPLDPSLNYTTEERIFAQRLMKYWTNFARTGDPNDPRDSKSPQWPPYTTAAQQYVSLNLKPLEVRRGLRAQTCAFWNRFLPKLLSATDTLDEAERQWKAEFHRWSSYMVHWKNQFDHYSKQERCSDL

Turning to `COc1ccc(/C=C/C(=O)Nc2cc[n+](Cc3ccc(F)cc3)cc2)cc1OC.[Br-]` [Compound 5l, (E)-4-(3-(3,4-dimethoxyphenyl)acrylamido)-1-(4-fluorobenzyl) pyridin-1-ium bromide], the “ABTS assay (trolox equiv)” value was “N (N means <0.05)”. Also, the concentration for half-maximal inhibition (IC50) (commonly the point on the concentration scale where inhibition reaches its midpoint) on human AChE is 0.0086 ± 0.0009 µM. On EeAChE, the “Type of AChE inhibition” value is “mixed-type inhibitor”. Besides, the half-inhibitory concentration (IC50) on AChE (from electric eel) came out at 0.0121 ± 0.0018 µM. Also, the Papp – broadly, a coefficient for how fast a substance crosses the barrier – at 16 h in “in vitro” is 2.89 ± 0.37 ×10⁻⁶ cm/s. In addition, the “BBB permeation prediction class” value in the series “in vitro” (PAMPA-BBB) is recorded as “CNS+”. In addition, in series [1], the IC50 is 2.5 µM and 2.6 µM. The “Inhibition (%) of brain AChE activity versus untreated controls” value on brain AChE stood at 53.9 ± 2.9%. The “Effect on cell viability (toxicity)” value with PC12 cells [2] is on record as “did not significantly affect cell viability”. The inhibition (in general, the share of the control response that was lost under treatment) at 50 µM on Aβ (1–42) [3] amounted to 68.6%. In the series with PC12 cells [4] (6 μM compound), the viability – broadly, a read-out of living cells in per cent, often relative to untreated cells – at 6 µM was 47.6 ± 4.2%. Further, the viability at 12.5 µM with PC12 cells [4] (12.5 μM compound) came to 57.5 ± 1.4%. Moreover, in the series with PC12 cells [4] (25 μM compound), the viability at 25 µM amounted to 63.2 ± 3.5%. Also, in the series on PC12 cells [4] (50 μM compound), the viability at 50 µM is 66.6 ± 2.5%. On Aβ (1–42) [5], the inhibition at 20 µM came to 64.7 ± 1.6%.
In the case of `NCCc1ccc(O)c(O)c1` [Dopamine, reference compound], in series [6], the “Permeability Pe, Bibl” value is 0.2 ×10⁻⁶ cm/s. In “in vitro”, this compound showed an apparent permeability (Papp) at 16 h of 0.17 ×10⁻⁶ cm/s.
